Results from the supplement of paper PMC10307832.

Assays:
Assay in all cases: relative viability (nuclei count vs DMSO), 5 days (fraction); higher = more cells survive
Venetoclax + Palbociclib = compound: CC1(C)CCC(CN2CCN(c3ccc(C(=O)NS(=O)(=O)c4ccc(NCC5CCOCC5)c([N+](=O)[O-])c4)c(Oc4cnc5[nH]ccc5c4)c3)CC2)=C(c2ccc(Cl)cc2)C1 [Venetoclax] + CC(=O)c1c(C)c2cnc(Nc3ccc(N4CCNCC4)cn3)nc2n(C2CCCC2)c1=O [Palbociclib] (partner 0.5 µM)
Method in brief: (§1)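 Dosing by pin tool came one day after lung cancer cell lines were seeded in 1536-well plates, using either one drug or a fixed anchor-drug dose plus five library-drug doses (not always all listed) in √10 steps. After 5 days, nuclei were counted on 4× images. Relative viability is treated-well nuclei count divided by vehicle-well nuclei count, and values are medians of duplicate plates.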

Selumetinib + Pictilisib = compound: Cn1cnc2c(F)c(Nc3ccc(Br)cc3Cl)c(C(=O)NOCCO)cc21 [Selumetinib] + CS(=O)(=O)N1CCN(Cc2cc3nc(-c4cccc5[nH]ncc45)nc(N4CCOCC4)c3s2)CC1 [Pictilisib] (partner 1 µM)
Method in brief: as §1

Venetoclax + Alpelisib = compound: CC1(C)CCC(CN2CCN(c3ccc(C(=O)NS(=O)(=O)c4ccc(NCC5CCOCC5)c([N+](=O)[O-])c4)c(Oc4cnc5[nH]ccc5c4)c3)CC2)=C(c2ccc(Cl)cc2)C1 [Venetoclax] + Cc1nc(NC(=O)N2CCC[C@H]2C(N)=O)sc1-c1ccnc(C(C)(C)C(F)(F)F)c1 [Alpelisib] (partner 2 µM)
Method in brief: as §1

Selumetinib + Pemetrexed = compound: Cn1cnc2c(F)c(Nc3ccc(Br)cc3Cl)c(C(=O)NOCCO)cc21 [Selumetinib] + Nc1nc2[nH]cc(CCc3ccc(C(=O)N[C@@H](CCC(=O)O)C(=O)O)cc3)c2c(=O)[nH]1 [Pemetrexed] (partner 0.2 µM)
Method in brief: as §1

Cell Line | relative viability (Venetoclax + Palbociclib; first compound 0.01 µM) | relative viability (Venetoclax + Palbociclib; first compound 0.03162 µM) | relative viability (Venetoclax + Palbociclib; first compound 0.1 µM) | relative viability (Venetoclax + Palbociclib; first compound 0.3162 µM) | relative viability (Venetoclax + Palbociclib; first compound 1 µM) | relative viability (Selumetinib + Pictilisib; first compound 0.02 µM) | relative viability (Selumetinib + Pictilisib; first compound 0.06325 µM) | relative viability (Selumetinib + Pictilisib; first compound 0.2 µM) | relative viability (Selumetinib + Pictilisib; first compound 0.6325 µM) | relative viability (Venetoclax + Alpelisib; first compound 0.01 µM) | relative viability (Venetoclax + Alpelisib; first compound 0.03162 µM) | relative viability (Venetoclax + Alpelisib; first compound 0.1 µM) | relative viability (Venetoclax + Alpelisib; first compound 0.3162 µM) | relative viability (Venetoclax + Alpelisib; first compound 1 µM) | relative viability (Selumetinib + Pemetrexed; first compound 0.02 µM) | relative viability (Selumetinib + Pemetrexed; first compound 0.06325 µM) | relative viability (Selumetinib + Pemetrexed; first compound 0.2 µM) | relative viability (Selumetinib + Pemetrexed; first compound 0.6325 µM)
NCI-H1792 | 0.657 | 0.678 | 0.65 | 0.699 | 0.583 | 0.238 | 0.197 | 0.196 | 0.144 | 0.674 | 0.669 | 0.542 | 0.616 | 0.622 | 0.637 | 0.648 | 0.634 | 0.557
LXF-289 | 0.624 | 0.592 | 0.631 | 0.556 | 0.552 | 0.735 | 0.615 | 0.537 | 0.552 | 1.05 | 1 | 1.04 | 1.04 | 0.934 | 0.865 | 0.848 | 0.763 | 0.808
NCI-H2347 | 0.41 | 0.388 | 0.322 | 0.483 | 0.414 | 0.641 | 0.314 | 0.239 | 0.258 | 1.04 | 1.04 | 1.06 | 1 | 1.04 | 0.425 | 0.402 | 0.399 | 0.392
RERF-LC-KJ | 1.05 | 1.08 | 0.988 | 1.03 | 1.03 | 0.527 | 0.476 | 0.44 | 0.504 | 0.769 | 0.871 | 0.736 | 0.91 | 0.779 | 0.429 | 0.459 | 0.492 | 0.472
NCI-H1734 | 0.331 | 0.383 | 0.346 | 0.394 | 0.318 | 0.486 | 0.363 | 0.438 | 0.438 | 0.682 | 0.732 | 0.624 | 0.628 | 0.689 | 0.387 | 0.373 | 0.404 | 0.418
NCI-H1915 | 0.477 | 0.558 | 0.541 | 0.524 | 0.495 | 0.889 | 0.716 | 0.454 | 0.448 | 1.03 | 1.05 | 1.02 | 1.01 | 1.06 | 0.519 | 0.449 | 0.533 | 0.373
NCI-H838 | 0.236 | 0.212 | 0.217 | 0.208 | 0.2 | 0.458 | 0.314 | 0.321 | 0.339 | 1.11 | 0.953 | 1.04 | 1.04 | 0.955 | 0.234 | 0.214 | 0.233 | 0.242
HCC-15 | 0.755 | 0.672 | 0.419 | 0.655 | 0.508 | 0.509 | 0.31 | 0.25 | 0.207 | 0.872 | 0.91 | 0.723 | 0.857 | 0.735 | 0.194 | 0.221 | 0.203 | 0.214
NCI-H650 | 0.319 | 0.387 | 0.345 | 0.366 | 0.303 | 1 | 0.912 | 0.887 | 0.993 | 1.07 | 0.989 | – | 1.13 | 1.01 | 1.05 | 1.25 | 1.19 | 1.16
NCI-H1651 | 0.529 | 0.537 | 0.536 | 0.545 | 0.528 | 0.536 | 0.51 | 0.511 | 0.522 | 0.973 | 0.949 | 0.959 | 0.987 | 0.905 | 0.623 | 0.57 | 0.596 | 0.626
NCI-H2405 | 0.52 | 0.533 | 0.531 | 0.529 | 0.513 | 0.382 | 0.303 | 0.269 | 0.26 | 0.833 | 0.751 | – | 0.82 | 0.705 | 0.999 | 0.813 | 0.75 | 0.736
LU99A | 0.377 | 0.465 | 0.384 | 0.39 | 0.427 | 0.34 | 0.317 | 0.412 | 0.351 | 0.432 | 0.545 | 0.548 | 0.522 | 0.505 | 0.195 | 0.184 | 0.184 | 0.245
H3255 | 0.34 | 0.316 | 0.315 | 0.33 | 0.296 | 0.434 | 0.462 | 0.38 | 0.36 | 0.702 | 0.671 | 0.686 | 0.891 | 0.686 | 0.564 | 0.571 | 0.552 | 0.549
NCI-H1993 | 0.643 | 0.652 | 0.717 | 0.616 | 0.541 | 0.945 | 0.815 | 0.866 | 0.807 | 0.676 | 0.696 | 0.665 | 0.617 | 0.68 | 0.614 | 0.571 | 0.553 | 0.651
NCI-H322M | 0.489 | 0.487 | 0.389 | 0.412 | 0.485 | 0.428 | 0.415 | 0.446 | 0.373 | 0.918 | 0.881 | 0.836 | 0.764 | 0.752 | 0.546 | 0.524 | 0.564 | 0.562
NCI-H460 | 0.158 | 0.294 | 0.121 | 0.216 | 0.144 | 0.272 | 0.249 | 0.207 | 0.209 | 0.539 | 0.446 | 0.446 | 0.472 | 0.447 | 0.0568 | 0.082 | 0.0617 | 0.0698
NCI-H2170 | 0.378 | 0.412 | 0.389 | 0.368 | 0.355 | 0.27 | 0.306 | 0.276 | 0.249 | 0.769 | 0.739 | 0.75 | 0.825 | 0.788 | 0.236 | 0.266 | 0.254 | 0.265
NCI-H1395 | 0.62 | 0.609 | 0.576 | 0.603 | 0.58 | 0.598 | 0.577 | 0.569 | 0.639 | 0.989 | 0.943 | 0.926 | 0.983 | 0.961 | 0.837 | 0.868 | 0.694 | 0.92
LC-2-ad | 0.456 | 0.532 | 0.465 | 0.491 | 0.508 | 0.482 | 0.426 | 0.432 | 0.437 | 0.839 | 0.906 | 1.02 | 0.871 | 0.905 | 0.263 | 0.269 | 0.273 | 0.277
NCI-H358 | 0.131 | 0.114 | 0.13 | 0.13 | 0.131 | 0.316 | 0.302 | 0.314 | 0.277 | 0.769 | 0.828 | 0.786 | 0.903 | 0.839 | 0.173 | 0.165 | 0.144 | 0.177
PC-3 [JPC-3] | 0.561 | 0.533 | 0.583 | 0.558 | 0.517 | 0.711 | 0.718 | 0.456 | 0.503 | 0.917 | 1.03 | 1.01 | 0.967 | 1.01 | 1.2 | 0.819 | 0.82 | 0.836
CAL-12T | 0.401 | 0.565 | 0.384 | 0.453 | 0.314 | 0.415 | 0.394 | 0.408 | 0.395 | 1.25 | 1.08 | 1.01 | 1.43 | 1.25 | 1.28 | 1.25 | 1.1 | 0.969
